Consider 1 compound from US9290421B2, “Hypervalent radioactive astatine or iodine compounds, and preparation methods thereof” (Institut National de la Santé de la Recherche Medicalé, priority 2010, dated 2016).

The structures appear in SMILES notation.

For `Cc1ccc2c(c1)C(C(F)(F)F)(C(F)(F)F)OI2Br` [Compound 5a, 1-Bromo-1,3-dihydro-5-methyl-3,3-bis(trifluoromethyl)-1,2-benziodoxole], the melting point (usually the temperature, or range, at which the solid turns liquid) was in the range of 189 to 190 °C.
